According to ChEMBL document CHEMBL1129900, “Synthesis and biological evaluation of 1-hydroxy-25(R and S)-25,26-Epoxy-23-yne vitamin D3 and of 1,25(R and S),26-Trihydroxy-23-yne vitamin D3” (1997):

Columns and labels:
Mus musculus = experiment: In vivo calcemic effect was tested in vitamin D replete normal […] mice by measuring calcium levels in serum; format: functional
[1] = biological target: T1, Vitamin D3 receptor (Homo sapiens) (UniProt P11473); experiment: Relative affinity compared to Calcitriol in displacement of [3H]1H]1-alpha,25(OH)2D3 from vitamin D3 receptor in […] cells; format: cell-based
T1 sequence (whole entry): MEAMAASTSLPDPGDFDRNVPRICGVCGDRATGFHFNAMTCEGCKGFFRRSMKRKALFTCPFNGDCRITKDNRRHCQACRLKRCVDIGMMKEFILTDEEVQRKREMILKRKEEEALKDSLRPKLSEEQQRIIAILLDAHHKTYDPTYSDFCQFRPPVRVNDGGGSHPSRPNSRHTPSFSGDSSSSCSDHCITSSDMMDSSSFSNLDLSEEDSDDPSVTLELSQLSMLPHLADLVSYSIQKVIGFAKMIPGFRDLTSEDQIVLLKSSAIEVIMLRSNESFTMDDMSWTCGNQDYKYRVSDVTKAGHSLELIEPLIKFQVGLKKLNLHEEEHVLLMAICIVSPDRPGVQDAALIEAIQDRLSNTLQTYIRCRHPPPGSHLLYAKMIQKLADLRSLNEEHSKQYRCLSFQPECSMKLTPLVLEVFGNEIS

[2] = biological target: T2, Vitamin D3 receptor (Sus scrofa) (UniProt A3RGC1); experiment: Affinity for pig intestinal mucosa Vitamin D3 receptor (VDR); format: tissue-based
T2 sequence (whole entry): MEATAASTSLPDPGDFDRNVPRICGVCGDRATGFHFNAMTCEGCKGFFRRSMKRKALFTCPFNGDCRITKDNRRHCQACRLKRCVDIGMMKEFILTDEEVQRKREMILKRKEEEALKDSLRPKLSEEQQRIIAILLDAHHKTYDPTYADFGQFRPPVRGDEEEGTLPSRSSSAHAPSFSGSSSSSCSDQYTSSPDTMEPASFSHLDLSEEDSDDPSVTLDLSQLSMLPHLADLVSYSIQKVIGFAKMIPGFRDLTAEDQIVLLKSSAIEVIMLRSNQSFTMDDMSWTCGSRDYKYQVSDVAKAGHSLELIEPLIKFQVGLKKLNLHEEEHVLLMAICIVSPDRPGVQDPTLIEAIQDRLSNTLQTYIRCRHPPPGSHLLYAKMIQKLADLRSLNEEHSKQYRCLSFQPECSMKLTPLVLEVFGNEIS

[3] = biological target: T1, Vitamin D3 receptor (Homo sapiens); experiment: Relative affinity compared to Calcitriol in displacement of [3H]1H]1-alpha,25(OH)2D3 from Vitamin D3 receptor in Keratinocyte cell lines
[4] = biological target: T1, Vitamin D3 receptor (Homo sapiens); experiment: Relative affinity compared to Calcitriol in displacement of [3H]1H]1-alpha,25(OH)2D3 from vitamin D3 receptor in HL-60 cells; format: cell-based
[5] = biological target: T2, Vitamin D3 receptor (Sus scrofa); experiment: Affinity for pig intestinal mucosa vitamin D receptor (VDR)
[6] = biological target: T1, Vitamin D3 receptor (Homo sapiens); experiment: Relative affinity compared to Calcitriol in displacement of [3H]1H]1-alpha,25(OH)2D3 from vitamin receptor (VDR) in keratinocyte cells; format: functional, cell-based
[7] = biological target: T1, Vitamin D3 receptor (Homo sapiens); experiment: Relative affinity compared to Calcitriol in displacement of [3H]1H]1-alpha,25(OH)2D3 from vitamin D receptor (VDR) in […] cells; format: cell-based
[8] = biological target: T1, Vitamin D3 receptor (Homo sapiens); experiment: Relative affinity compared to Calcitriol in displacement of [3H]1H]1-alpha,25(OH)2D3 from vitamin D receptor (VDR) in HL-60 cells; format: functional, cell-based

| SMILES | Activity (Mus musculus) | Activity [1] | Activity [2] | Activity [3] | Activity [4] | Activity [5] | Activity [6] | Activity [7] | Activity [8] |
| --- | --- | --- | --- | --- | --- | --- | --- | --- | --- |
| C=C1/C(=C/C=C2/CCC[C@]3(C)[C@@H]([C@H](C)CC#C[C@](C)(O)CO)CC[C@@H]23)C[C@@H](O)C[C@@H]1O | 0.7 | 150% | 70 | 250% | 150% |  |  |  |  |
| C=C1/C(=C/C=C2/CCC[C@]3(C)[C@@H]([C@H](C)CC#C[C@@](C)(O)CO)CC[C@@H]23)C[C@@H](O)C[C@@H]1O | 0.1 | 150% | 80 | 250% | 150% |  |  |  |  |
| C=C1/C(=C/C=C2/CCC[C@]3(C)[C@@H]([C@H](C)CC#C[C@]4(C)CO4)CC[C@@H]23)C[C@@H](O)C[C@@H]1O | 0.2 |  |  |  |  | 75 | 250% | 150% | 150% |
| C=C1/C(=C/C=C2/CCC[C@]3(C)[C@@H]([C@H](C)CC#C[C@@]4(C)CO4)CC[C@@H]23)C[C@@H](O)C[C@@H]1O | 0.3 | 150% | 60 | 250% | 150% |  |  |  |  |
| C=C1/C(=C/C=C2/CCC[C@]3(C)[C@@H]([C@H](C)CC#CC4(C)CO4)CC[C@@H]23)C[C@@H](O)C[C@@H]1O (stereo not given in full) | 0.25 | 150% | 70 | 250% | 150% |  |  |  |  |
